Values of other authors in patent publication US5788978A, “Injectable pulsatile ivermectin composition” (priority 1996, dated 1998).

How the values were obtained:
parasites = settings: in vivo

**Q.** With ivermectin as the substance, how does the “minimum efficiency level in serum” value (parasites) read?
**A.** Its value is 2 to 5 nanogrammes per milliliter of serum.

**Q.** What about the “solubility in acqueous media” value of the same substance?
**A.** The value was “insoluble”.
